Laboratory results as given in patent US20070054868A1, “Synergistic polyphenol compounds, compositions thereof, and uses thereof” (The Trustees of Columbia University in the City of New York, priority 2005, published 2007).

Legend:
[1] = tested on: IGFBP-3; experiment: Production of IGFBP-3 in HepG2 cells; type: cell-based, human; settings: 20 μg/mL
Experimental: The cells were treated with […] EGCG at 0, 3, 6, 12, 24 and 48 hours, and cell extracts were examined by Western blot analysis using the respective antibodies, or were examined by semiquantitative RT-PCR analysis using IGFBP-3 or IGF-1 specific primers.
(§1) Using the MTT cell proliferation assay described in Example 21, and substituting HepG2 human liver cancer cells in place of SW837 cells, the effects of EGCG (20 μg/mL), an illustrative Synergistic Polyphenol Compound, on the production of IGF-1, IGF-2 and IGFBP-3 was determined. […] Accordingly, the Synergistic Polyphenol Compounds are useful for treating or preventing liver cancer.

[2] = tested on: SW837 human colon cancer cells; experiment: DNA fragmentation assay (Cell Death Detection ELISA), apoptosis; type: cell-based
Experimental: SW837 human colon cancer cells (5.0×10^5 cells/6-cm diameter dish) were treated with EGCG (1.0 or 20 μg/mL) for 48 or 96 hours, and samples were then prepared. Control cells were treated only with DMSO. The extent of DNA fragmentation at time 0 hours was set to 1 and increases expressed as fold activation.

[3] = obtained in a clinical study; value said to be in the range of the peak; cited from earlier work
[4] = tested on: HepG2 human liver cancer cells; experiment: MTT cell proliferation assay; type: cell-based
Experimental: as §1

[5] = tested on: PGE2; experiment: PGE2 production assay (EIA) in SW837 cells; type: cell-based, human; settings: 10, 20 or 40 μg/mL, 18 hours, 20 μM arachidonic acid
Experimental: SW837 human colon cancer cells were plated into 35-mm dishes and grown to 60% confluence. The cells were then treated with EGCG (0, 10, 20, or 40 μg/mL) in serum minus medium containing 20 μM arachidonic acid (Sigma) for 18 hours. The cell free medium was then collected and the amounts of PGE2 released by cells into the medium were measured using an EIA kit (Cayman Chemicals, Ann Arbor, Mich.), according to the manufacturer's instructions. Production of PGE2 was normalized to the protein concentration of the cells.

[6] = target: T1, EGFR (Homo sapiens, UniProt P00533); experiment: Binding of Alexa 488-labeled EGF to the cell surface receptor; settings: HT29 cells pre-treated with test substance
T1 construct: endogenous in cells; host or cells: HT29 colon cancer cells
Experimental: These effects were detected with as little as […] of EGCG, and within 5 minutes. Phosphorylation of EGFR, ERK1, ERK2, and AKT were suppressed in cells treated with methyl-β-cyclodextrin, which depletes plasma membrane cholesterol. […] In addition, the inhibitory effect of EGCG on phosphorylation of EGFR was not blocked by the addition of cholesterol on the growth medium. These findings provide evidence that EGCG can alter membrane domain organization in colon cancer cells ant that this is not due to cholesterol depletion. It was noted that pre-treatment of the cells with EGCG or Poly E inhibited the binding of Alexa 488-labeled EGF to the cell surface receptor EGFR.

[7] = tested on: p-IGF-1R; experiment: Western blot analysis for IGF in SW837 cells; type: cell-based, human; settings: 20 μg/mL, within 6 hours
From the text: (§2) Total cellular protein was extracted and equivalent amounts of protein were examined by western blot analysis, as described above in Example 6. Cell lysates were separated by SDS-PAGE using 7.5 to 15% polyacrylamide gels and transferred onto Immobilon-P transfer membranes (Millipore Co., Bedford, Mass.). The primary antibodies for IGF-1R[…](#3022) and p-IGF-1R (#3021) were purchased from Cell Signaling Technology (Beverly, Mass.). The primary antibodies for IGF-1R[…](sc-713) and IGFBP-3 (sc-6003) were purchased from Santa Cruz Biotechnology (Santa Cruz, Calif.). The primary antibodies for IGF-1 (clone Sm1.2) and actin (A2066) were purchased from Upstate Cell Signaling Solutions (Charlottesville, Va.) and Sigma Chemical Co. (St Louis, Mo.), respectively. An antibody to actin was used as a loading control. Anti-mouse IgG (Amersham Pharmacia Biosciences, Piscataway, N.J.), anti-rabbit IgG (Amersham Pharmacia Biosciences), or anti-goat IgG (Santa Cruz Biotechnology) antibodies were used as the secondary antibodies. Each membrane was developed using an ECL-enhanced chemiluminescence system (Amersham Biosciences).

[8] = tested on: IGFBP-3 protein; experiment: Western blot analysis for IGF in SW837 cells; type: cell-based, human
From the text: as §2

[9] = tested on: IGF-1 protein; experiment: Western blot analysis for IGF in SW837 cells; type: cell-based, human
From the text: as §2

[10] = tested on: SW837 human colon cancer cells; experiment: Cell proliferation assay (Coulter Counter); type: cell-based; settings: 1.0 μg/mL, 96 hours
Experimental: Thirty thousand SW837 human colon cancer cells were seeded into multiple 35-mm diameter dishes in DFI0 medium, and 24 hours later the cells were treated with EGCG (0, 1.0, or 20 μg/mL) for 96 hours, during which time, the medium and drugs were not changed. As a control, the cells were treated with 0.1% DMSO. Every 24 hours, and for a total time of 96 hours, replicate plates of cells were washed with PBS and the attached cells were collected by trypsinization. The numbers of cells in replica plates were then counted using a Coulter Counter (Beckman Coulter Co., Fullerton, Calif.) as described in Shimizu et al., Clin. Cancer Res., 10:1130-1140 (2004).

(−)-epigallocatechin gallate
production of IGFBP-3 [1]: increased the production
apoptosis (DNA fragmentation) ([2]; 1.0 μg/mL, 96 hours): significant increase
apoptosis (DNA fragmentation) ([2]; 20 μg/mL, 48 hours): induction of apoptosis
peak plasma concentration [3]: ~1.0 µg/mL
IC50, growth of HepG2 cells [4]: 21 µg/mL
levels of PGE2 [5]: decrease
binding of Alexa 488-labeled EGF to the cell surface receptor EGFR [6]: inhibited
levels of the p-IGF-1R protein [7]: marked decrease
level of the IGFBP-3 protein ([8]; 1.0 μg/mL, 96 hours): increase
level of the IGFBP-3 protein ([8]; 20 μg/mL, at 6 hours, persisted for at least 48 hours): marked increase
levels of the IGF-1 protein ([9]; 1.0 μg/mL, 96 hours): decrease
levels of the IGF-1 protein ([9]; 20 μg/mL, at 12 hours): moderate decrease
levels of the IGF-1 protein ([9]; 20 μg/mL, at 24 hours): marked decrease
inhibition of growth [10]: about 55%
